{
  "source": "patent US20220249596A1",
  "about": "“PIC1 PEPTIDE COMPOSITIONS AND METHODS OF USE THEREOF FOR TREATMENT OF HYPOXIC ISCHEMIC ENCEPHALOPATHY” (REALTA HOLDINGS, LLC, priority 2019, published 2022)",
  "type_in_all_cases": "in vivo, rat",
  "key": {"[1]": {"assay": "Beam balance test (tapered/ledged beam)", "settings": "six weeks after surgery", "procedure": "(§1) No other preparation was needed. The thawed tubes were kept on ice until dosing.\nSix weeks after surgery, the sensory motor functions of forelimbs and hindlimbs were tested using tapered/ledged beam (Zhao et al., Behav. Brain Res. 156 (2005), 85-94). The shape of the beam was square. The rats were pre-trained for 3 days to traverse the beam. The beam-walking apparatus consists of a horizontal 160 cm tapered (square) beam with underhanging ledges on each side to permit foot faults without falling. The end of the beam was connected to a black box (20.5 cm×25 cm×25 cm) with a platform at the starting point. A bright light was placed above the start point to motivate the rats to traverse the beam. The rats' performance was videotaped and were analyzed by calculating the slip ratio of the impaired (contralateral to lesion) forelimb and hindlimb (number of slips/number of total steps). Steps onto the ledge were scored as a full slip and a half slip was given if the limb touched the side of the beam. Also, the walking/running time on the beam were measured. The mean of three trials were used for statistical analyses. Analysis was carried out by an observer blind to the experimental groups."}, "T-maze test": {"assay": "T-maze test", "settings": "six weeks after surgery, between study groups, pooled and separated genders", "text": "as §1\nThe T-maze test apparatus was plastic with two 45 cm long arms, which extend at right-angles from a 57 cm long alley (see www.noldus.com/animal-behavior-research/t-maze). The arms have a width of 10 cm and were surrounded by 10 cm high walls. The test consists of two trials at an interval of five minutes, during which time the animals are returned to their home cages. During an eight minute acquisition trial, one of the short arms was closed. In a three minute test trial, rats had access to both arms and to the alley. Time spent in each of the arms and in the long alley was assessed. Cognitively healthy rats tended to spend more time in the novel arm than in the familiar one or in the alley.\nIn an eight minute acquisition trial, while the novel arm is blocked, each rat was lowered to the beginning of the alley arm, facing the wall, and allowed to freely explore the maze's arms (start arm (alley arm), center and familiar arm), while the novel arm was inaccessible. […]\nDuring the three minute test trial, with all three arms accessible (the wall of the novel arm was removed), each rat was allowed to freely explore the whole maze. Time spent in each of the arms was recorded using EthoVision XT 11 automated tracking system (Noldus Information Technology)."}, "[2]": {"test_system": "brain lesion after hypoxia/ischemia", "assay": "T2 MRI for brain tissue viability, lesion volume and edema", "procedure": "Neonatal hypoxia/ischemia was induced in Wistar rat pups (age of 10±1 days, P10) according to Rice et al. (1981) and with modifications. Rat pups were anesthetized with 5% isoflurane (in 70% N2O and 30% O2; flow 300 ml/min). During the operation the concentration of anesthetic was reduced to 1.0-1.5% to maintain adequate level of anesthesia. The rectal temperature was maintained at 37.0±1.5° C. with a homeothermic blanket system (Harvard Apparatus, UK). Just before first incision, pups received buprenorphine 0.03 mg/kg i.p. After midline skin incision, the right common carotid artery (CCA) was exposed and permanently ligated distal from the carotid bifurcation. Thereafter the wound was closed, disinfected, and the animals were allowed to recover from anesthesia for 1 hour before subjecting them to hypoxic conditions. Pups were carefully monitored for possible post-surgical complications. An additional dose of buprenorphine 0.03 mg/kg was administered s.c. twice a day during the first 48 hours post-surgery.\nTherma-treatment (6 hours) was started 1 hour post-hypoxia, to maintain normothermia (36+/−1° C. rat internal temperature) or hypothermia (31° C.+/−1 rat internal temperature), as follows. After CCA ligation, suturing and recovery for 1 h, pups were placed into chamber submerged to heated (+37° C.) water bath. Chamber was ventilated with heated (gas lines submerged to +37° C. water) mixture of 8% O2/92% N2 while pups were subjected to hypoxia. During the hypoxia period, chamber inner temperature was monitored. Pups were kept under hypoxic conditions for 60 minutes, except in group 5. In all pups the rectal temperature was monitored to ensure normothermic body temperature during hypoxia exposure. Rectal temperature after the H/I period was measured and recorded at the end of the exposure.\nNo other preparation was needed. The thawed tubes were kept on ice until dosing. […]\nBrain tissue viability was performed as follows. Lesion T2 and Control T2 values (in milliseconds) were measured at 24 hours and 21 days after H/I, and the data are shown as average. […]"}},
  "note": "“Also recorded” adds a separate entry of the source. No end group written: not given here.",
  "data": [
    {"substance": "IALILEPICCQERAA-dPEG24 (cysteine pairing not given here) [PIC1]", "values": [
      {"measurement": "beam balance: hind paw slips", "setting": "[1]; between study groups", "result": "No differences"},
      {"measurement": "beam balance: front paw slips", "setting": "[1]; pooled genders and males, versus H/I+normo, p<0.05", "result": "fewer front paw slips"},
      {"measurement": "T-maze: time spent in novel and familiar arms, alley, center", "setting": "T-maze test", "result": "no significant differences; also recorded: No statistical significances"},
      {"measurement": "lesion volume in MRI", "setting": "[2]; 24 hours, pooled genders, H/I+PIC1+hypo versus H/I+hypo, p<0.05", "result": "reduction; also recorded: significant difference"},
      {"measurement": "edema (%) in MRI", "setting": "[2]; 21 days, pooled genders, H/I+PIC1+normo versus H/I+hypo, p<0.01", "result": "reduction"},
      {"measurement": "control T2 value", "setting": "[2]; contralateral cortex, between study groups, pooled or separated genders", "result": "no changes; also recorded: No statistical significances"}
    ]}
  ]
}
